Consider 1 compound from patent US20120213697A1, “VERSATILE NANOPARTICULATE BIOMATERIAL FOR CONTROLLED DELIVERY AND/OR CONTAINMENT OF THERAPEUTIC AND DIAGNOSTIC MATERIAL” (Albert Einstein College of Medicine of Yeshiva University, priority 2009, published 2012).

This assay in a line: MRI of mice after tail vein injection, maximum pixel intensity of the kidney. Type of assay: in vivo, mouse. Here is the method: FIG. 2A-2B. MRI of a mouse injected with Magnevist® (gadopentetate dimeglumine) (A) and a mouse injected with nanoparticles loaded with gadopentetate dimeglumine (B). The left images are pre-injection, center images are 4 hours post injection, and right images are 24 hours post injection. […] A study was conducted to address the efficacy with which CA-loaded particles can provide MRI images. MRI images of mice were acquired pre-injection. Subsequently mice were injected (via the tail vein) with one of the following: i) a suspension of empty nanoparticles; ii) a suspension of nanoparticles loaded with Magnevist® (gadopentetate dimeglumine, a commercial Gd based MRI contrast reagent); and iii) Magnevist® solution. Mice were then imaged immediately after injection of each of these materials and again at 2 hours, 4 hours and 24 hours post injection. Maximum pixel intensity of the kidney was measured (relative to the background) at each time point using ImageJ software.

`CNC[C@H](O)[C@@H](O)[C@H](O)[C@H](O)CO.CNC[C@H](O)[C@@H](O)[C@H](O)[C@H](O)CO.O=C([O-])CN(CCN(CC(=O)[O-])CC(=O)O)CCN(CC(=O)[O-])CC(=O)O.[Gd+3]` [Magnevist®, gadopentetate dimeglumine]: the “increase of maximum pixel intensity of the kidney” value (4 hours post-injection, tail vein, one mouse each) turned out to be 32%. In addition, under “24 hour time point”, the “signal intensity throughout the GI tract” value is on record as “not observed”. For the setting “24 hours post-injection”, the “MRI contrast (FIG. 2)” value was “returned to pre-injection levels”. The “change of maximum pixel intensity of the kidney” value (24 hours post-injection, additional increase over 4 hours) is listed as “returned to pre-injection levels”.
